Assay results: PubChem BioAssay AID328 (DTP/NCI, 2004)
“And” between values parts separate entries of the source, which are not always exact repeats. Identical values can stand only once. Toxic doses and inconclusive results are not listed. The calls were made as follows: active = survival T/C of 150% or more; inactive = T/C below 125% in these data.

System: BDF1 mice, P388 leukemia ip, median survival T/C
Experiment: NCI In Vivo Anticancer Drug Screen. Data for tumor model P388 Leukemia (intraperitoneal) in B6D2F1 (BDF1) mice
Settings: endpoint: median survival time, higher = longer survival
Method in brief: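 Steps: implant the tumour, treat one group with compound and another with vehicle, record survival, then divide treated by control.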

[1] = dose: 50.0 mg/kg/injection, schedule: Q01DX009 (ip), vehicle: saline with Tween-80
[2] = dose: 100.0 mg/kg/injection, schedule: Q01DX009 (ip), vehicle: saline with Tween-80
[3] = dose: 25.0 mg/kg/injection, schedule: Q01DX009 (ip), vehicle: saline with Tween-80
[4] = dose: 200.0 mg/kg/injection, schedule: Q01DX009 (ip), vehicle: saline with Tween-80
[5] = dose: 200.0 mg/kg/injection, schedule: Q01DX009 (ip), vehicle: Klucel (hydroxypropylcellulose) (HPC)
[6] = dose: 100.0 mg/kg/injection, schedule: Q04DX003 (ip), vehicle: saline with Tween-80
[7] = dose: 200.0 mg/kg/injection, schedule: Q04DX003 (ip), vehicle: saline with Tween-80
[8] = dose: 400.0 mg/kg/injection, schedule: Q01DX009 (ip), vehicle: saline with Tween-80
[9] = dose: 400.0 mg/kg/injection, schedule: Q04DX003 (ip), vehicle: saline with Tween-80
[10] = dose: 400.0 mg/kg/injection, schedule: Q04DX003 (ip), vehicle: water

Measured: T/C

O=C1C2C(c3cc4ccccc4n31)N2c1ccccc1 (stereo unspecified)
inactive: dose: 0.03 mg/kg/injection, schedule: Q01DX010 (ip), vehicle: water 110 % of control | dose: 0.06 mg/kg/injection, schedule: Q01DX010 (ip), vehicle: water 94 % of control | dose: 0.13 mg/kg/injection, schedule: Q01DX010 (ip), vehicle: water 94 % of control | dose: 0.25 mg/kg/injection, schedule: Q01DX010 (ip), vehicle: water 94 % of control | dose: 0.5 mg/kg/injection, schedule: Q01DX010 (ip), vehicle: water 105 % of control | dose: 1.0 mg/kg/injection, schedule: Q01DX010 (ip), vehicle: water 105 % of control | dose: 2.0 mg/kg/injection, schedule: Q01DX010 (ip), vehicle: water 105 % of control

CCOC(=O)N1CCN(CCCCCOc2ccc(CC(C)(C)C)cc2Cl)CC1
inactive: [1] 121 % of control | [2] 118 % of control

O=C(c1ccccc1)c1cc(-c2ccccc2)n(C2CCCCC2)c1
inactive: [3] 96 % of control | [1] 86 % of control | [2] 94 % of control | [4] 96 % of control

C[C@]12CC[C@H]3C(=CCc4cc(O)ccc43)[C@@H]1CCC2=O
inactive: dose: 100.0 mg/kg/injection, schedule: Q04DX003 (ip), vehicle: Klucel (hydroxypropylcellulose) (HPC) 95 % of control | [5] 91 % of control | dose: 200.0 mg/kg/injection, schedule: Q04DX003 (ip), vehicle: Klucel (hydroxypropylcellulose) (HPC) 90 % of control | dose: 400.0 mg/kg/injection, schedule: Q04DX003 (ip), vehicle: Klucel (hydroxypropylcellulose) (HPC) 95 % of control

CC(CS(=O)(=O)O)N1CCN(CCO)CC1 (stereo unspecified)
inactive: dose: 100.0 mg/kg/injection, schedule: Q04DX003 (ip), vehicle: saline 95 % of control | dose: 200.0 mg/kg/injection, schedule: Q04DX003 (ip), vehicle: saline 100 % of control | dose: 400.0 mg/kg/injection, schedule: Q04DX003 (ip), vehicle: saline 100 % of control

CCOC(OC(C)=O)OC(C)=O
inactive: dose: 50.0 mg/kg/injection, schedule: Q01DX001 (ip), vehicle: saline 100 % of control | dose: 100.0 mg/kg/injection, schedule: Q01DX001 (ip), vehicle: saline 115 % of control | dose: 200.0 mg/kg/injection, schedule: Q01DX001 (ip), vehicle: saline 110 % of control

COc1ccc(C2CCc3cc4c(cc3/C2=N/O)OCO4)cc1OC (stereo unspecified)
inactive: [2] 104 % of control | [6] 100 % of control | [4] 104 % of control | [7] 100 % of control | [8] 95 % of control | [9] 90 % of control

CN(C)CCNC(=O)Cc1cc(O)c2c(c1O)C(=O)c1ccccc1C2=O
inactive: dose: 50.0 mg/kg/injection, schedule: Q01DX005 (ip), vehicle: saline 105 % of control | dose: 100.0 mg/kg/injection, schedule: Q01DX005 (ip), vehicle: saline 118 % of control

COC(=O)C(CC(C)C)NC(=O)C(Cc1ccc(Oc2ccc([N+](=O)[O-])cc2[N+](=O)[O-])cc1)NC=O (stereo unspecified)
inactive: dose: 25.0 mg/kg/injection, schedule: Q04DX003 (ip), vehicle: water 95 % of control | dose: 300.0 mg/kg/injection, schedule: Q04DX003 (ip), vehicle: water 99 % of control | [10] 96 % of control and 98 % of control and 112 % of control

Nc1ncnc2nc[nH]c12.[Cl][Pt][Cl]
inactive: dose: 100.0 mg/kg/injection, schedule: Q01DX009 (ip), vehicle: water 114 % of control | dose: 100.0 mg/kg/injection, schedule: Q04DX003 (ip), vehicle: water 93 % of control | dose: 200.0 mg/kg/injection, schedule: Q01DX009 (ip), vehicle: water 118 % of control | dose: 200.0 mg/kg/injection, schedule: Q04DX003 (ip), vehicle: water 98 % of control | dose: 400.0 mg/kg/injection, schedule: Q01DX009 (ip), vehicle: water 104 % of control | [10] 98 % of control

CN(C)c1ccc2c(Cl)cc(Cl)nc2c1
inactive: dose: 12.5 mg/kg/injection, schedule: Q01DX009 (ip), vehicle: Klucel (hydroxypropylcellulose) (HPC) 109 % of control | dose: 25.0 mg/kg/injection, schedule: Q01DX009 (ip), vehicle: Klucel (hydroxypropylcellulose) (HPC) 109 % of control | dose: 50.0 mg/kg/injection, schedule: Q01DX009 (ip), vehicle: Klucel (hydroxypropylcellulose) (HPC) 111 % of control | dose: 100.0 mg/kg/injection, schedule: Q01DX009 (ip), vehicle: Klucel (hydroxypropylcellulose) (HPC) 117 % of control | [5] 107 % of control

CCOc1ccc(C(/C(Cl)=N/O)C(Cl)(Cl)Cl)cc1 (stereo unspecified)
inactive: dose: 5.5 mg/kg/injection, schedule: Q01DX009 (ip), vehicle: Klucel (hydroxypropylcellulose) (HPC) 109 % of control | dose: 6.25 mg/kg/injection, schedule: Q04DX003 (ip), vehicle: Klucel (hydroxypropylcellulose) (HPC) 100 % of control | dose: 8.2 mg/kg/injection, schedule: Q01DX009 (ip), vehicle: Klucel (hydroxypropylcellulose) (HPC) 100 % of control | dose: 12.5 mg/kg/injection, schedule: Q04DX003 (ip), vehicle: Klucel (hydroxypropylcellulose) (HPC) 95 % of control | dose: 25.0 mg/kg/injection, schedule: Q04DX003 (ip), vehicle: Klucel (hydroxypropylcellulose) (HPC) 100 % of control | dose: 35.0 mg/kg/injection, schedule: Q04DX003 (ip), vehicle: Klucel (hydroxypropylcellulose) (HPC) 120 % of control | dose: 55.0 mg/kg/injection, schedule: Q04DX003 (ip), vehicle: Klucel (hydroxypropylcellulose) (HPC) 110 % of control | dose: 80.0 mg/kg/injection, schedule: Q04DX003 (ip), vehicle: Klucel (hydroxypropylcellulose) (HPC) 110 % of control | dose: 120.0 mg/kg/injection, schedule: Q04DX003 (ip), vehicle: Klucel (hydroxypropylcellulose) (HPC) 100 % of control

COC(=O)c1cccn1C(=O)c1c2nc3c(C(=O)n4cccc4C(=O)OC)ccc(C)c3oc-2c(C)c(=O)c1N
inactive: [6] 101 % of control | [7] 102 % of control | [9] 103 % of control

Cc1ccc2[nH]c(=S)n(-c3cccc(C(F)(F)F)c3)c(=O)c2c1
inactive: [3] 102 % of control | [1] 92 % of control and 94 % of control | [2] 102 % of control | [4] 93 % of control | [8] 102 % of control

O=S(=O)(NC1CCCCC1)c1ccccc1
inactive: dose: 75.0 mg/kg/injection, schedule: Q01DX009 (ip), vehicle: saline with Tween-80 90 % of control | [6] 95 % of control | dose: 150.0 mg/kg/injection, schedule: Q01DX009 (ip), vehicle: saline with Tween-80 90 % of control | dose: 300.0 mg/kg/injection, schedule: Q01DX009 (ip), vehicle: saline with Tween-80 95 % of control | [9] 100 % of control

C#CC[N+]12CN3CN(CN(C3)C1)C2
inactive: dose: 50.0 mg/kg/injection, schedule: Q01DX009 (ip), vehicle: saline 123 % of control

COC(=O)C12OCC34C(CC5C(C)=C(O)C(=O)CC5(C)C3C(O)C1O)OC(=O)C(OC(=O)CC(C)C(C)C)C24 (stereo unspecified)
inactive: dose: 7.0 micrograms/kg/injection, schedule: Q01DX009 (ip), vehicle: saline + alcohol 100 % of control | dose: 15.0 micrograms/kg/injection, schedule: Q01DX009 (ip), vehicle: saline + alcohol 95 % of control and 119 % of control | dose: 27.5 micrograms/kg/injection, schedule: Q01DX009 (ip), vehicle: saline 120 % of control | dose: 31.0 micrograms/kg/injection, schedule: Q01DX009 (ip), vehicle: saline + alcohol 107 % of control and 113 % of control | dose: 62.0 micrograms/kg/injection, schedule: Q01DX009 (ip), vehicle: saline + alcohol 115 % of control and 122 % of control | dose: 500.0 micrograms/kg/injection, schedule: Q01DX009 (ip), vehicle: saline + alcohol 123 % of control
active: dose: 2.0 mg/kg/injection, schedule: Q01DX009 (ip), vehicle: saline + alcohol 156 % of control | dose: 4.0 mg/kg/injection, schedule: Q01DX009 (ip), vehicle: saline + alcohol 176 % of control | dose: 440.0 micrograms/kg/injection, schedule: Q01DX009 (ip), vehicle: saline 150 % of control | dose: 1000.0 micrograms/kg/injection, schedule: Q01DX009 (ip), vehicle: saline + alcohol 163 % of control | dose: 2000.0 micrograms/kg/injection, schedule: Q01DX009 (ip), vehicle: saline + alcohol 168 % of control | dose: 4000.0 micrograms/kg/injection, schedule: Q01DX009 (ip), vehicle: saline + alcohol 163 % of control

COc1c(O)c(O)c2c3c(c(O)c4c2c1C(=O)C=C4C)C(C)(C)C(C)O3 (stereo unspecified)
inactive: dose: 50.0 mg/kg/injection, schedule: Q04DX001 (ip), vehicle: saline 104 % of control | dose: 100.0 mg/kg/injection, schedule: Q04DX001 (ip), vehicle: saline 100 % of control | dose: 200.0 mg/kg/injection, schedule: Q04DX001 (ip), vehicle: saline 100 % of control

O=C1CCCCCCC1Cc1cc(O)c(CC2CCCCCCC2=O)cc1O (stereo unspecified)
inactive: [1] 90 % of control | [2] 91 % of control | [4] 86 % of control
